Results on 22 compounds are retold here after US9226916B2, “Pyrrolidine derivatives” (HOFFMANN-LA ROCHE INC., priority 2009, dated 2016).

One experiment addresses T1, recombinant human NK3 receptor (Homo sapiens, UniProt P29371).
T1 construct: expressed in transfected cells; host or cells: HEK293 cells, transient expression; membranes
T1 sequence (P29371 1-465): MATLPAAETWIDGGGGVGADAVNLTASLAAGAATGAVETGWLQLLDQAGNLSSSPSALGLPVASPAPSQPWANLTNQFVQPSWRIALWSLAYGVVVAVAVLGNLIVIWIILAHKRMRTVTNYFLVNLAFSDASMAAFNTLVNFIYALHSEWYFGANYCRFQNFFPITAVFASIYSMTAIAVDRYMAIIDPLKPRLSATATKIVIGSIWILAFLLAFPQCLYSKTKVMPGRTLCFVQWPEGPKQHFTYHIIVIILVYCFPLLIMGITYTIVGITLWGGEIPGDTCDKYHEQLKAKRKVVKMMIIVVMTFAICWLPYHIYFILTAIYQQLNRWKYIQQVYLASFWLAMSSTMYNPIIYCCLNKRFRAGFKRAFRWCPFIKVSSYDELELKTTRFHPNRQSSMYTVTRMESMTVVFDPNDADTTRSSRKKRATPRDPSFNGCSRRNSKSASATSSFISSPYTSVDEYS
Description: [3H]SR142801 competition binding assay.
Settings: not given
For `CN(C(=O)O[C@H]1CC[C@H](C(F)(F)F)CC1)[C@@H]1CN(C(=O)C2CCN(c3ccc(C(=O)NC(C)(C)C)cn3)CC2)C[C@H]1c1ccc(Cl)cc1` (racemic) [Example 121, rac-[(3S,4R)-1-(5′-tert-Butylcarbamoyl-3,4,5,6-tetrahydro-2H-[1,2′]bipyridinyl-4-carbonyl)-4-(4-chloro-phenyl)-pyrrolidin-3-yl]-methyl-carbamic acid 4-trifluoromethyl-cyclohexyl ester], the Ki worked out at 6.6 nM.
`CN(C(=O)Oc1ccc(F)cc1)[C@@H]1CN(C(=O)C2CCC(F)(F)CC2)C[C@H]1c1ccc(Cl)cc1` [Example 117, [(3S,4R)-4-(4-Chloro-phenyl)-1-(4,4-difluoro-cyclohexanecarbonyl)-pyrrolidin-3-yl]-methyl-carbamic acid 4-fluoro-phenyl ester]: the Ki came to 17.4 nM.
The same measure, in the same setting: then `CN(C(=O)Oc1ccc(F)cc1)[C@@H]1CN(C(=O)C2CCN(c3ccc(C(N)=O)cn3)CC2)C[C@H]1c1ccc(Cl)c(Cl)c1` [Example 310, [(3S,4R)-1-(5′-Carbamoyl-3,4,5,6-tetrahydro-2H-[1,2′]bipyridinyl-4-carbonyl)-4-(3,4-dichloro-phenyl)-pyrrolidin-3-yl]-methyl-carbamic acid 4-fluoro-phenyl ester], with 0.6 nM.
On the same count and under the same terms, next, `CN(C(=O)Oc1ccc(F)cc1)[C@@H]1CN(C(=O)C2CCN(C(=O)C3(C)COC3)CC2)C[C@H]1c1ccc(F)cc1` [Example 286, {(3S,4R)-4-(4-Fluoro-phenyl)-1-[1-(3-methyl-oxetane-3-carbonyl)-piperidine-4-carbonyl]-pyrrolidin-3-yl}-methyl-carbamic acid 4-fluoro-phenyl ester]: 25.4 nM; `CN(C(=O)Oc1ccc(F)c(F)c1)[C@@H]1CN(C(=O)C2CCN(c3ccc(C#N)cn3)CC2)C[C@H]1c1ccc(Cl)cc1` [Example 209, [(3S,4R)-4-(4-Chloro-phenyl)-1-(5′-cyano-3,4,5,6-tetrahydro-2H-[1,2′]bipyridinyl-4-carbonyl)-pyrrolidin-3-yl]-methyl-carbamic acid 3,4-difluoro-phenyl ester]: 0.8 nM; `CN(C(=O)Oc1ccc(F)cc1)[C@@H]1CN(C(=O)C2CCN(C(=O)C3CCOCC3)CC2)C[C@H]1c1ccc(Cl)c(Cl)c1` [Example 275, {(3S,4R)-4-(3,4-Dichloro-phenyl)-1-[1-(tetrahydro-pyran-4-carbonyl)-piperidine-4-carbonyl]-pyrrolidin-3-yl}-methyl-carbamic acid 4-fluoro-phenyl ester]: 0.9 nM.
Same read-out and setting: then `CN(C(=O)Oc1ccc(F)cc1)[C@H]1CN(C(=O)C2CCN(c3ccc(Cl)nn3)CC2)C[C@@H]1c1ccc(Cl)c(Cl)c1` (racemic) [Example 79, rac-[(3R,4S)-1-[1-(6-Chloro-pyridazin-3-yl)-piperidine-4-carbonyl]-4-(3,4-dichloro-phenyl)-pyrrolidin-3-yl]-methyl-carbamic acid 4-fluoro-phenyl ester], with 0.4 nM; and `COC1CC(C(=O)N2C[C@@H](N(C)C(=O)Oc3ccc(F)cc3)[C@H](c3ccc(Cl)cc3)C2)C1` (stereo partly drawn) [Example 149, [(3S,4R)-4-(4-Chloro-phenyl)-1-(3-methoxy-cyclobutanecarbonyl)-pyrrolidin-3-yl]-methyl-carbamic acid 4-fluoro-phenyl ester], with 90.8 nM.
For the compound `CN(C(=O)Oc1ccc(F)cc1)[C@@H]1CN(C(=O)C2CCN(C(=O)[C@@H]3CC(=O)N3)CC2)C[C@H]1c1ccc(Cl)c(Cl)c1` [Example 292, {(3S,4R)-4-(3,4-Dichloro-phenyl)-1-[1-((S)-4-oxo-azetidine-2-carbonyl)-piperidine-4-carbonyl]-pyrrolidin-3-yl}-methyl-carbamic acid 4-fluoro-phenyl ester], the Ki came out at 0.04 nM.
The same measure, in the same setting: next, `CN(C(=O)Oc1ccc(F)cc1)[C@@H]1CN(C(=O)C2CCN(c3ccc(C(N)=O)cn3)CC2)C[C@H]1c1ccc(Cl)cc1` [Example 196, [(3S,4R)-1-(5′-Carbamoyl-3,4,5,6-tetrahydro-2H-[1,2′]bipyridinyl-4-carbonyl)-4-(4-chloro-phenyl)-pyrrolidin-3-yl]-methyl-carbamic acid 4-fluoro-phenyl ester]: 2.2 nM; `COc1ccc(OC(=O)N(C)[C@H]2CN(C(=O)C3CCN(C(=O)C4(C)CC4)CC3)C[C@@H]2c2ccc(Cl)c(Cl)c2)cc1` (racemic) [Example 15, rac-{(3R,4S)-4-(3,4-Dichloro-phenyl)-1-[1-(1-methyl-cyclopropanecarbonyl)-piperidine-4-carbonyl]-pyrrolidin-3-yl}-methyl-carbamic acid p-methoxyphenyl ester]: 2.5 nM; `CN(C(=O)Oc1ccc(F)cc1)[C@@H]1CN(C(=O)C2CCN(C(=O)C3CCC(=O)NC3)CC2)C[C@H]1c1ccc(Cl)c(Cl)c1` (stereo partly drawn) [Example 281, {(3S,4R)-4-(3,4-Dichloro-phenyl)-1-[1-(6-oxo-piperidine-3-carbonyl)-piperidine-4-carbonyl]-pyrrolidin-3-yl}-methyl-carbamic acid 4-fluoro-phenyl ester]: 0.3 nM.
With `CN(C(=O)Oc1ccc(F)cc1)[C@@H]1CN(C(=O)C2CCN(C(=O)C3(C)CC3)CC2)C[C@H]1c1ccc(Cl)cc1` [Example 39, {(3S,4R)-4-(4-Chloro-phenyl)-1-[1-(1-methyl-cyclopropanecarbonyl)-piperidine-4-carbonyl]-pyrrolidin-3-yl}-methyl-carbamic acid 4-fluoro-phenyl ester], the inhibition constant Ki is 11 nM.
Still for that read-out and setting: next, `CN(C(=O)Oc1ccc(F)cc1)[C@@H]1CN(C(=O)C2CCN(c3ccc(C#N)nc3)CC2)C[C@H]1c1ccc(Cl)cc1` [Example 198, [(3S,4R)-4-(4-Chloro-phenyl)-1-(6′-cyano-3,4,5,6-tetrahydro-2H-[1,3]bipyridinyl-4-carbonyl)-pyrrolidin-3-yl]-methyl-carbamic acid 4-fluoro-phenyl ester]: 0.5 nM.
With `COCC1(C(=O)N2CCC(C(=O)N3C[C@@H](N(C)C(=O)Oc4ccc(F)cc4)[C@H](c4ccc(Cl)c(Cl)c4)C3)CC2)CC1` [Example 277, {(3S,4R)-4-(3,4-Dichloro-phenyl)-1-[1-(1-methoxymethyl-cyclopropanecarbonyl)-piperidine-4-carbonyl]-pyrrolidin-3-yl}-methyl-carbamic acid 4-fluoro-phenyl ester], the Ki stood at 0.5 nM.
Still for that read-out and setting: next, `Cc1cc([C@H]2CN(C(=O)C3CCN(C(=O)C4(C)CC4)CC3)C[C@@H]2N(C)C(=O)Oc2ccc(F)cc2)ccc1Cl` (racemic) [Example 71, rac-{(3R,4S)-4-(4-Chloro-3-methyl-phenyl)-1-[1-(1-methyl-cyclopropanecarbonyl)-piperidine-4-carbonyl]-pyrrolidin-3-yl}-methyl-carbamic acid 4-fluoro-phenyl ester]: 1.8 nM; `CC(=O)N1CCC(C(=O)N2C[C@@H](N(C)C(=O)Oc3ccc(F)cc3)[C@H](c3ccc(F)cc3)C2)CC1` [Example 285, [(3S,4R)-1-(1-Acetyl-piperidine-4-carbonyl)-4-(4-fluoro-phenyl)-pyrrolidin-3-yl]-methyl-carbamic acid 4-fluoro-phenyl ester]: 19.1 nM.

The same experiment, now with this note: hNK-3 receptor affinity; membranes from HEK293 cells transiently expressing recombinant human NK3 receptor; [3H]SR142801; Cheng-Prussoff; read-out: Data Ki.
For `CN(C(=O)OCC(F)(F)F)[C@@H]1CN(C(=O)C2CCN(c3ccc(C#N)cn3)CC2)C[C@H]1c1ccc(Cl)cc1` [Example 158, [(3S,4R)-4-(4-Chloro-phenyl)-1-(5′-cyano-3,4,5,6-tetrahydro-2H-[1,2′]bipyridinyl-4-carbonyl)-pyrrolidin-3-yl]-methyl-carbamic acid 2,2,2-trifluoro-ethyl ester], the Ki turned out to be 12.5 nM.
On the same count and under the same terms, next, `CN(C(=O)Nc1ccc(F)cc1)[C@H]1CN(C(=O)C2CCN(C(=O)C3(C)CC3)CC2)C[C@@H]1c1ccc(Cl)cc1` (racemic) [Example 96, rac-1-{(3R,4S)-4-(4-Chloro-phenyl)-1-[1-(1-methyl-cyclopropanecarbonyl)-piperidine-4-carbonyl]-pyrrolidin-3-yl}-3-(4-fluoro-phenyl)-1-methyl-urea]: 53.7 nM; `CN(C(=O)OC1CCCCC1)[C@@H]1CN(C(=O)C2CCN(C(=O)C3(C)CC3)CC2)C[C@H]1c1ccc(Cl)cc1` [Example 152, {(3S,4R)-4-(4-Chloro-phenyl)-1-[1-(1-methyl-cyclopropanecarbonyl)-piperidine-4-carbonyl]-pyrrolidin-3-yl}-methyl-carbamic acid cyclohexyl ester]: 14.7 nM.

Still in this experiment, the particulars now being: read-out: Data Ki.
Regarding “rac-{(3R,4S)-4-(3,4-Dichloro-phenyl)-1-[1-(1-methyl-cyclopropanecarbonyl)-piperidine-4-carbonyl]-pyrrolidin-3-yl}-methyl-carbamic acid (S)-1-(tetrahydro-furan-2-yl)methyl ester and rac-{(3R,4S)-4-(3,4-Dichloro-phenyl)-1-[1-(1-methyl-cyclopropanecarbonyl)-piperidine-4-carbonyl]-pyrrolidin-3-yl}-methyl-carbamic acid (R)-1-(tetrahydro-furan-2-yl)methyl ester [Example 84]”, the Ki was 18.3 nM.
Still for that read-out and setting: next, `CN(C(=O)Oc1cc(F)cc(F)c1)[C@@H]1CN(C(=O)C2CCN(c3ccc(C#N)nc3)CC2)C[C@H]1c1ccc(Cl)cc1` [Example 210, [(3S,4R)-4-(4-Chloro-phenyl)-1-(6′-cyano-3,4,5,6-tetrahydro-2H-[1,3]bipyridinyl-4-carbonyl)-pyrrolidin-3-yl]-methyl-carbamic acid 3,5-difluoro-phenyl ester]: 4.6 nM.

As usually defined, the Ki is the dissociation constant of the complex between target and ligand, obtained from inhibition or displacement.
